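48-hour exposure; five concentrations; linearly interpolated endpoints. The concentration for full growth arrest is given as TGI.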
Test system: SF-539 CNS
Experiment: DTP human tumour cell line panel, 48 h

Row | Structure (SMILES) | TGI [µM]
1 | CC(O)CNC(=O)C(C)Oc1ccc(OCC2CCCCC2)cc1 (stereo not given) | > 100
2 | Cc1ccc(C2=CC(=O)OC(C[P+](c3ccccc3)(c3ccccc3)c3ccccc3)(c3ccccc3)O2)cc1 (stereo not given) | 33.8
3 | O=c1oc2cc(O)ccc2c(O)c1C(c1ccccc1)c1c(O)c2ccc(O)cc2oc1=O | > 100
4 | Cc1c(/C=N\NC(=S)NCCNC(=S)N/N=C\c2c(C)n(C)n(-c3ccccc3)c2=O)c(=O)n(-c2ccccc2)n1C | > 100
5 | O=P(O)(O)C(N=C(Nc1ccccc1)Nc1ccccc1)P(=O)(O)O | > 100
6 | CCCCCCCCCCCC[S+](C)C | 19.4
7 | C=C1CC(C#N)(C#N)[C@H]2C3CCCC3C[C@@H]12 (stereo not given in full) (tested in a mixture with another compound) | 50.2

Test system: NCI-H226 lung
Experiment: DTP human tumour cell line panel, 48 h

Row | Structure (SMILES) | TGI [µM]
8 | CCN1CN(c2ccccc2)C2(CCN(CC3COc4ccccc4O3)CC2)C1=O (stereo not given) | 94.1
9 | N[C@@H](Cc1ccccc1)C(=O)N1CCC[C@@H]1P(=O)(Oc1ccccc1)Oc1ccccc1 | > 100
10 | Cc1ccc(/C=N\NC2c3cc(Cl)ccc3Nc3nc(=O)[nH]c(C)c32)cc1 (stereo not given) | > 100
11 | O=c1[nH][nH]c(=O)n1CCCCCCn1c(=O)[nH][nH]c1=O | > 100
12 | CC(=O)NC1C(OCc2ccccc2)OC(CO)C(O)C1OCC(=O)N[C@@H](C)C(=O)N[C@H](CCC(=O)NCCCNc1c2ccccc2nc2cccc([N+](=O)[O-])c12)C(N)=O (stereo not given in full) | 0.287
13 | CCCCCC#CCOC(=O)C(=[N+]=[N-])P(=O)(c1ccccc1)c1ccccc1 | > 10
14 | COc1ccc(C(=O)/C=C/c2ccc(OCCCOc3ccc(/C=C/C(=O)c4ccc(OC)cc4)cc3)cc2)cc1 | > 100
15 | CCOc1cc(/C=C2/C(C)=NN(c3cccc(Cl)c3)/C2=N/c2nc3ccccc3s2)ccc1O | 68
16 | O=C(O)COc1ccccc1C(=O)Nc1ccccc1 | > 100
17 | COc1cc(OC)cc(C(=O)CC(=O)c2cc(OC)cc(OC)c2)c1 | > 100
18 | COc1ccc(C2c3cn[nH]c3CC3CCCCC32)cc1 (stereo not given) | 36.9
19 | O=C1CC2(CCC(O)(c3ccc4ccccc4c3)C(C(=O)c3ccc4ccccc4c3)C2)C(=O)c2ccccc2N1 (stereo not given) | > 100
20 | COc1cc2c(cc1OC)C(C(c1ccccc1)c1ccccc1)N(C)CC2 (stereo not given) | > 100
21 | C[N+](C)([O-])CCOc1cc2c(c3ccccc13)-c1ccccc1C2=O | 78.8
22 | CCOC(=O)C1S/C(=N\C(=N)N[N+](=O)[O-])N=C1C (stereo not given) | > 100
23 | O=[N+]([O-])C(=C(Nc1cccc2cccnc12)Nc1cccc2cccnc12)C(Cl)=C(Cl)Cl | > 100
24 | O=C1NC2c3c(I)sc(I)c3C(O)C2O1 (stereo not given) | > 100
25 | Cc1nc(C)c(C(=O)NNC(=O)C[N+](C)(C)C)cc1C(=O)NNC(=O)C[N+](C)(C)C | > 100
26 | CNc1cc2c(c3ccccc13)C(CCl)CN2C(=O)c1cc2cc(OC)c(OC)c(OC)c2[nH]1 (stereo not given) | 0.067
27 | S=C1NC2=C(CSC/C2=C\c2cccc(Br)c2)C(c2cccc(Br)c2)N1 (stereo not given) | > 100
28 | CCCCCCCCCCCCCCCCNc1cccc2ccccc12 | > 100
29 | O=C1OCC/C1=N/O | > 100
30 | CC(O)CNC(=O)C(C)Oc1ccc(OCC2CCCCC2)cc1 (stereo not given) | > 100
31 | Cc1ccc(C2=CC(=O)OC(C[P+](c3ccccc3)(c3ccccc3)c3ccccc3)(c3ccccc3)O2)cc1 (stereo not given) | 60.4
32 | O=c1oc2cc(O)ccc2c(O)c1C(c1ccccc1)c1c(O)c2ccc(O)cc2oc1=O | > 100
33 | Cc1c(/C=N\NC(=S)NCCNC(=S)N/N=C\c2c(C)n(C)n(-c3ccccc3)c2=O)c(=O)n(-c2ccccc2)n1C | > 100
34 | O=P(O)(O)C(N=C(Nc1ccccc1)Nc1ccccc1)P(=O)(O)O | > 100
35 | CCOC(=O)c1c(-c2ccc(O)c(OC)c2)c(C#N)c(=S)n(C2OC(CO)C(O)C(O)C2O)c1-c1ccccc1 (stereo not given) | > 100
36 | CCCCCCCCCCCC[S+](C)C | 15.4
37 | C=C1CC(C#N)(C#N)[C@H]2C3CCCC3C[C@@H]12 (stereo not given in full) (tested in a mixture with another compound) | 61.9

Test system: MDA-MB-435
Experiment: DTP human tumour cell line panel, 48 h

Row | Structure (SMILES) | TGI [µM]
38 | CCN1CN(c2ccccc2)C2(CCN(CC3COc4ccccc4O3)CC2)C1=O (stereo not given) | 67.2
39 | O=C1C=C/C(=N\N=C(c2ccccc2)c2ccccc2)O1 | > 10
40 | N[C@@H](Cc1ccccc1)C(=O)N1CCC[C@@H]1P(=O)(Oc1ccccc1)Oc1ccccc1 | > 100
41 | O=c1[nH][nH]c(=O)n1CCCCCCn1c(=O)[nH][nH]c1=O | > 100
42 | CC(=O)NC1C(OCc2ccccc2)OC(CO)C(O)C1OCC(=O)N[C@@H](C)C(=O)N[C@H](CCC(=O)NCCCNc1c2ccccc2nc2cccc([N+](=O)[O-])c12)C(N)=O (stereo not given in full) | 0.132
43 | COc1ccc(-c2nc(SCC(=O)NNC(=S)Nc3ccccc3)[nH]c2-c2ccc(OC)cc2)cc1 | 46.7
44 | CCCCCC#CCOC(=O)C(=[N+]=[N-])P(=O)(c1ccccc1)c1ccccc1 | > 10
45 | COc1ccc(C(=O)/C=C/c2ccc(OCCCOc3ccc(/C=C/C(=O)c4ccc(OC)cc4)cc3)cc2)cc1 | > 100
46 | COc1cc(OC)cc(C(=O)CC(=O)c2cc(OC)cc(OC)c2)c1 | > 100
47 | COc1ccc(C2c3cn[nH]c3CC3CCCCC32)cc1 (stereo not given) | 40.4
48 | O=C(O)[C@H]1CCCN1CP(=O)(O)CN1CCC[C@@H]1C(=O)O | > 100
49 | O=C1CC2(CCC(O)(c3ccc4ccccc4c3)C(C(=O)c3ccc4ccccc4c3)C2)C(=O)c2ccccc2N1 (stereo not given) | > 100
50 | O=[N+]([O-])C(=C(Nc1cccc2cccnc12)Nc1cccc2cccnc12)C(Cl)=C(Cl)Cl | > 100
51 | NS(=O)(=O)c1ccc(NC(=S)/N=C/C2=C(O)c3ccccc3C2=O)cc1 | > 100
52 | O=C1NC2c3c(I)sc(I)c3C(O)C2O1 (stereo not given) | > 100
53 | Cc1nc(C)c(C(=O)NNC(=O)C[N+](C)(C)C)cc1C(=O)NNC(=O)C[N+](C)(C)C | > 100
54 | CNc1cc2c(c3ccccc13)C(CCl)CN2C(=O)c1cc2cc(OC)c(OC)c(OC)c2[nH]1 (stereo not given) | 0.0131
55 | Cc1cccc(C)c1NC(=O)C(Cc1c[nH]c2ccccc12)NC(=O)OCc1ccccc1 (stereo not given) | 48.5
56 | S=C1NC2=C(CSC/C2=C\c2cccc(Br)c2)C(c2cccc(Br)c2)N1 (stereo not given) | > 100
57 | Cc1ccc(C2=CC(=O)OC(C[P+](c3ccccc3)(c3ccccc3)c3ccccc3)(c3ccccc3)O2)cc1 (stereo not given) | 30.7
58 | O=c1oc2cc(O)ccc2c(O)c1C(c1ccccc1)c1c(O)c2ccc(O)cc2oc1=O | > 100
59 | Cc1c(/C=N\NC(=S)NCCNC(=S)N/N=C\c2c(C)n(C)n(-c3ccccc3)c2=O)c(=O)n(-c2ccccc2)n1C | > 100
60 | CCOC(=O)c1c(-c2ccc(O)c(OC)c2)c(C#N)c(=S)n(C2OC(CO)C(O)C(O)C2O)c1-c1ccccc1 (stereo not given) | > 100
61 | C=C1CC(C#N)(C#N)[C@H]2C3CCCC3C[C@@H]12 (stereo not given in full) (tested in a mixture with another compound) | 44.5

Test system: HOP-92 NSCLC
Experiment: DTP human tumour cell line panel, 48 h

Row | Structure (SMILES) | TGI [µM]
62 | O=C1C=C/C(=N\N=C(c2ccccc2)c2ccccc2)O1 | > 10
63 | N[C@@H](Cc1ccccc1)C(=O)N1CCC[C@@H]1P(=O)(Oc1ccccc1)Oc1ccccc1 | > 100
64 | Cc1ccc(/C=N\NC2c3cc(Cl)ccc3Nc3nc(=O)[nH]c(C)c32)cc1 (stereo not given) | > 100
65 | COc1ccc(-c2nc(SCC(=O)NNC(=S)Nc3ccccc3)[nH]c2-c2ccc(OC)cc2)cc1 | 44.9
66 | CCCCCC#CCOC(=O)C(=[N+]=[N-])P(=O)(c1ccccc1)c1ccccc1 | > 10
67 | CCOc1cc(/C=C2/C(C)=NN(c3cccc(Cl)c3)/C2=N/c2nc3ccccc3s2)ccc1O | 67.8
68 | O=C(O)COc1ccccc1C(=O)Nc1ccccc1 | > 100
69 | COc1cc(OC)cc(C(=O)CC(=O)c2cc(OC)cc(OC)c2)c1 | > 100
70 | O=C(O)[C@H]1CCCN1CP(=O)(O)CN1CCC[C@@H]1C(=O)O | > 100
